The values that follow come from US20070098636A1, “Method of identifying responders to treatment with insulin sensitizers” (priority 2003, published 2007).

One assay concerns db/db mice. Nature of the assay: Adiponectin complex distribution in serum of treated db/db mice (velocity sedimentation, quantitative Western blot). Type of assay: in vivo, mouse. The conditions noted are these: male db/db mice, 10 mg/kg-day by gavage, following 11 days of treatment. As to the method: (§1) Velocity sedimentation/gel filtration chromatography for separation of adiponectin complexes—5-20% sucrose gradients in 10 mM HEPES pH 8, 125 mM NaCl were poured stepwise (5%, 10%, 15%, 20%) in 2-ml thin-walled ultracentrifuge tubes (Becton Dickinson) and allowed to equilibrate overnight at 4° C. Following layering of the sample on top (diluted 1:10 with 10 mM HEPES pH 8, 125 mM NaCl in the case of serum), the gradients were spun at 55,000 RPM for four hours at 4° C. in a TLS55 rotor in a Beckman TL-100 tabletop ultracentrifuge. 150 μL gradient fractions were sequentially retrieved from the top of the gradient and analyzed by quantitative Western blot analysis.
(§2) Immunoblotting—Separation of proteins by SDS-PAGE, fluorography, and immunoblotting were performed as described previously (20). Primary and secondary antibodies were diluted in TBS with 0.05% Tween-20 and 1% BSA. Horseradish peroxidase conjugated secondary antibodies were detected with enhanced chemiluminescence according to the manufacturer's instructions (Pierce). For quantitative Western blotting, proteins were transferred to BA83 nitrocellulose (Schleicher & Schuell) after SDS-PAGE. […] Blots were analyzed with a Phosphoimager (Molecular Dynamics) and fractions 4-6 and 9-11 from velocity sedimentation (LMW and […] adiponectin, respectively) were quantitated with Imagequant Software. […]

The subject of a further assay is non-diabetic human males. Nature of the assay: Human Clinical Study A: plasma adiponectin and adiponectin complexes pre- and post-treatment. In kind it is in vivo. Conditions: 4 mg bid for 14 days. As to the method: as §1, §2

The structures appear in SMILES notation.

`CN(CCOc1ccc(CC2SC(=O)NC2=O)cc1)c1ccccn1` (stereo not drawn) [rosiglitazone]: the “percentage of adiponectin found in the high molecular weight (HMW) form” value in the assay with db/db mice was “approximately 45 % of total circulating adiponectin”. In the assay with non-diabetic human males, the “total adiponectin relative to placebo” value was “about 2 fold”. Also, the “HMW/total adiponectin ratio, post-treatment value” in the assay on non-diabetic human males (pre-treatment value 20-25%) is 45-50%.
